Data: patent publication EP1371368A1, “Salvianolic acid components as lipase inhibitors” (N.V. Nutricia, priority 2002, dated 2003)

Target: T1, porcine pancreas lipase (Sus scrofa, UniProt P00591)
T1 construct: purchased ICN Biomedicals BV
T1 sequence (P00591 1-450): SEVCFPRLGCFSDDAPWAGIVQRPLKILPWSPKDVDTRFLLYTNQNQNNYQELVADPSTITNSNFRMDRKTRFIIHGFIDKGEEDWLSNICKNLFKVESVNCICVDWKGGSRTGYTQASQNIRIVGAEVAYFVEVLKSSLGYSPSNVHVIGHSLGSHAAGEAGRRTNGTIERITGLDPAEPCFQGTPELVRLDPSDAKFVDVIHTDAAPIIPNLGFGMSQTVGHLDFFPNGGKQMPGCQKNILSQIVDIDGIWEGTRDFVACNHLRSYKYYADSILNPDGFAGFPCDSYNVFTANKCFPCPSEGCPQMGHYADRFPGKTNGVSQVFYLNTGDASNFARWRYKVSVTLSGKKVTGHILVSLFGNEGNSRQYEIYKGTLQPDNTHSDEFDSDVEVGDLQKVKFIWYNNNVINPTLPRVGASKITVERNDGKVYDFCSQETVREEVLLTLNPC
Test: In vitro lipase inhibitory activity (hydrolysis of p-nitrophenyl caprylate to p-nitrophenol, absorption at 405 nm)
Type: biochemical
Conditions: inhibition of lipase activity compared to control at the final concentration printed in the same row
Method: Lipase activity was determined by measuring the rate of hydrolysis of p-nitrophenyl caprylate to p-nitrophenol (yellow) and caprylate.
Phosphate buffer A (200 mM phosphate buffer with a pH 7) was prepared by mixing: 488 ml 200 mM Na2HPO4·H2O (17.5 gram/500 ml) with 296 ml 200 mM NaH2PO4·H2O (13.8 gram/500 ml) followed by adjustment of the pH. Substrate solution was prepared freshly by mixing: • a) 500 ml buffer B (200 mM phosphate buffer A pH 7 containing 0.1% (w/v) Triton x-100) and • b) 5.3 ml stock solution of the substrate (250 mM p-nitrophenyl caprylaat (pnp) in acetonitrile). […] The final concentration of pnp in the substrate solution is thus 2.66 mM pnp. Subsequently, the substrate solution was placed in an ultrasonic bath for exactly 3 minutes. […]
Samples were prepared by adding 40 mg of commercial extracts of Salvia material to 4 ml DMSO, incubating at room temperature for 15 minutes, followed by centrifugation to remove the insolubles. […] For each sample the capacity to inhibit lipase activity was determined.
25 µl of sample (25 µl DMSO for control) was added to 150µl substrate solution and incubated for 10 minutes at 37 °C. Subsequently 25 µl lipase solution was added and the p-nitrophenol formation was determined during a period of 10 minutes by measuring the absorption increase at 405 nm. […]

CCCCCCCCCCC[C@@H](C[C@@H]1OC(=O)[C@H]1CCCCCC)OC(=O)[C@H](CC(C)C)NC=O [Orlistat]
Inhibition (%): 50%
